# Tests used:
# [1] = test system: mice lacking OX1 receptors; assay: DRL 36-s schedule of reinforcement in OX1 KO mice; format: in vivo, mouse; conditions: for Lever Presses Mean / Reinforcers Mean: OX1 KO mice DRL-36-s, raw data
# Text: Rats were acclimated to housing conditions for 4 days, followed by sham dosing once daily for 3 days, prior to the experiment. For DRL experiments, male Sprague–Dawley rats weighing between 300 and 350 g at the beginning of the behavioral experiments (Holtzman, Madison, WI) were housed in pairs. For mouse DRL studies, male C57Bl/6 mice (Taconic Farms, Hudson, NY) or mice lacking either OX1 or OX2 receptors, around 8 weeks of age, were obtained from private breeding colonies at Taconic Farms (Hudson, NY). OX1 and OX2 receptor knockout mice were generated using in vitro fertilization of embryos in C57Bl/6 female mice with sperm harvested from male mice obtained from the University of Texas Southwestern Medical Center (Dallas, TX), and backcrossed for at least 10 generations. Mice and rats were housed in separate colony rooms, which were maintained at 22°C and 60% relative humidity. For rat DRL experiments, water was available for a 20-min period following the daily behavioral session. Based on recommendations from the animal care and use committee, the mouse DRL assay was developed using food deprivation rather than water deprivation. […] All experiments were conducted during the light cycle and in compliance with the Guide for the Care and Use of Laboratory Animals under protocols approved by a local animal care and use committee.
# The levers in these chambers were mounted on one wall with an adjacent food magazine next to the lever in the middle of the wall. A reinforced response caused a clicker apparatus to activate and the pellet feeder to deposit one 45-mg sucrose pellet (BioServ, Frenchtown, NJ) into the food magazine. The house light, which was mounted on the ceiling, was turned on when the session began, remained on throughout the entire session, and was turned off at the end of the session. Each experimental chamber was enclosed in a melamine sound-attenuating cubicle and equipped with a white noise generator to provide masking noise.
# Each mouse was initially trained under a variable time 60-s operant schedule for 5 days, followed by fixed ratio-1 ratio schedule for 5 days. After the mice had acquired lever-pressing behavior, they were trained during daily DRL 6-s sessions for ~1 week, then mice progressed through weekly ascending DRL requirements (12, 18, 24, 30 s) before moving to DRL 36-s sessions. […] Experimental sessions lasted for 45 min and were conducted 5 days/week during light hours.
# Drugs were administered to the animals once or twice weekly with at least 1 week between subsequent drugs to minimize possible carryover effects. Drug treatments were administered on Tuesdays and Fridays. No treatments were administered on other test days. Wednesdays were control days. “Control” behavior was calculated as the pooled mean lever presses or reinforcers received during Wednesday sessions across all Wednesdays for the duration of each study. Performance was normalized to percent of control by dividing total responses (or reinforcers) for each drug or vehicle treatment by the mean number of responses (reinforcers) in the respective pooled control condition, multiplied by 100.
# The data analyses were conducted on the raw response and reinforcement data. All behavioral data are expressed as the mean ± s.e.m. normalized to the control condition.
# rat OX2 receptors = molecular target: T1, rat OX2 receptors (Rattus norvegicus, UniProt P56719); assay: cell-based
# T1 sequence (P56719 1-460): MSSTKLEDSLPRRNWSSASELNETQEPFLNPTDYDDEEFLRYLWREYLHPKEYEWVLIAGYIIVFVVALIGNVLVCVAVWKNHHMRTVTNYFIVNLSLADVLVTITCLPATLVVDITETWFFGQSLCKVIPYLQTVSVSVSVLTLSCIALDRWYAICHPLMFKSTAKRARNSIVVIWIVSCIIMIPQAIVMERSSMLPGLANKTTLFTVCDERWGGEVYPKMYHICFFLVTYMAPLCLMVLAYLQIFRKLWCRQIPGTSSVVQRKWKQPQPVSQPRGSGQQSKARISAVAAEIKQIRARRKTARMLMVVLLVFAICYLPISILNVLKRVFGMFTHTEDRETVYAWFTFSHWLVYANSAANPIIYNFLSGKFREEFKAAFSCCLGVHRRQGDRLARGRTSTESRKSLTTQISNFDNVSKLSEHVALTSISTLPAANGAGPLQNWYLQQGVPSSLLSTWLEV
# human OX1 receptors [2] = molecular target: T2, human OX1 receptors (Homo sapiens, UniProt O43613); assay: Radioligand binding, [125I]-Orexin A displacement, HEK293 membranes; set-up: expressed in transfected cells; membranes; conditions: 90 min, mean ± s.e.m. (n)
# T2 sequence (O43613 1-425): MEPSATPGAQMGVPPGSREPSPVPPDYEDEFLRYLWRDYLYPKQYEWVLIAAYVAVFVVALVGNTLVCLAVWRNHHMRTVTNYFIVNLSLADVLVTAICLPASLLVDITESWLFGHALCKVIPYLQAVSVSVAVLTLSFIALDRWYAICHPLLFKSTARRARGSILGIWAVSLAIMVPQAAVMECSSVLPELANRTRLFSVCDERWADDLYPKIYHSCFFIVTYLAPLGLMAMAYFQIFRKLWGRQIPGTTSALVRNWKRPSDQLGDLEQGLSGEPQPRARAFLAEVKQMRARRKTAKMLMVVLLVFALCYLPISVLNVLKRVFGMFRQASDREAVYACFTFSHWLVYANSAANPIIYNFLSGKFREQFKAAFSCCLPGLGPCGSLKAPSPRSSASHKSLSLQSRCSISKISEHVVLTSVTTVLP
# Description: Briefly, the membranes were isolated by homogenizing cell pellet in 30 ml (w/v) 50 mM Tris buffer (pH 7.4) containing Roche Complete EDTA free protease tablets. […] All binding studies were conducted at a final volume of 200 μl. […] Then 300 μl of this solution was placed in column B on a Nunc polypropylene 96-well plate (Thermo Fisher Scientific, Inc., Rochester, NY). Serial dilutions were then made using a Biomek 2000 (Beckman Coulter, Inc., Fullerton, CA) from a starting concentration of 40 μM. […] All binding was terminated by rapid filtration using a TOMTEC 96-well cell harvester (Hamden, CT) through GF/A filters that had been presoaked with 0.3% polyethyleneimine. The filters were washed with 5.0 ml ice-cold 50 mM Tris buffer (pH 7.4) and air-dried overnight. […] Protein concentrations were measured using Coomassie Protein Plus Assay Reagent (Pierce, Rockford, IL) and serum albumin standards.
# human OX1 receptors [3] = molecular target: T2, human OX1 receptors; assay: Intracellular calcium mobilization (FLIPR), antagonist mode vs EC70 orexin-A; conditions: HEK293 cells, mean ± s.e.m. (n)
# Description: Recombinant human OX1 and OX2 receptors were stably expressed in HEK293 cells, or rat recombinant OX1 and OX2 receptors stably expressed in AV12 cells, and assessed for intracellular calcium mobilization using Fluo-3 dye (Molecular Probes, Eugene, OR). […] It was further diluted to 8 mM in 2.5 mM probenecid loading buffer which was made as described below. The human cell line was grown in DMEM/F-12 (3:1) supplemented with 10% FBS (heat-inactivated), 20 mM HEPES, 1% Penn/Strep, and 4 μg/ml Blasticidin (35,000 cells/well). The rat cell line was grown in DMEM supplemented with 10% FBS (heat-inactivated), 20 mM HEPES, 1% Penn/Strep, 4 μg/ml Blasticidin, and 1 mM sodium pyruvate (60,000 cells/well). […] Finally, plates were read on a fluorescence imaging plate reader (FLIPR; Molecular Devices, LLC, Sunnyvale, CA) instrument with a 50 μl addition of antagonist; cells were placed in the dark at room temperature for an additional 15 min; then read on FLIPR instrument with a 100 μl addition of an EC70 concentration of orexin A (for a total volume of 200 μl). […] Kb-values were calculated based on 10-point dilution curves using ActivityBase templates (ID Business Solutions, Ltd., Guildford, Surrey, UK). […]
# [4] = mice lacking OX1 receptors, 100 mg/kg
Compound,Lever Presses Mean ([1]; dose 10 mg/kg),Reinforcers Mean ([1]; dose 10 mg/kg),Lever Presses Mean ([1]; dose 20 mg/kg),Reinforcers Mean ([1]; dose 20 mg/kg),Lever Presses Mean ([1]; dose 40 mg/kg),Reinforcers Mean ([1]; dose 40 mg/kg),Lever Presses Mean ([1]; dose 60 mg/kg),Reinforcers Mean ([1]; dose 60 mg/kg),"Lever presses emitted, effect in words ([1]; mice lacking OX1 receptors, all doses 10–60 mg/kg)","Reinforcers received, effect in words ([1]; mice lacking OX1 receptors, at 10 and 40 mg/kg)",Kb (rat OX2 receptors),Lever Presses Mean ([1]; dose 100 mg/kg),Reinforcers Mean ([1]; dose 100 mg/kg),"Lever pressing, effect in words [1, 4]","Reinforcers received, effect in words [1, 4]","Receptor binding affinity, Ki OX1 (human OX1 receptors [2])","Functional antagonist activity, Kb hOX1 (human OX1 receptors [3])"
CNC(=O)[C@@H](c1ccccc1)N1CCc2cc(OC)c(OC)cc2[C@@H]1CCc1ccc(C(F)(F)F)cc1 [Almorexant (S)],111.38,33.00,124.75,30.50,108.25,34.63,110.13,29.13,reduced the number of lever presses emitted,significant increase,4.4 ± 1.6 nM,–,–,–,–,–,–
CNC(=O)[C@@H](c1ccccc1)N1CCc2cc(OC)c(OC)cc2[C@@H]1CCc1ccc(C(F)(F)F)cc1 [Almorexant (R)],–,–,–,–,–,–,–,–,–,–,–,103.75,28.88,significant decrease,significant increases,inactive,inactive
